This assay concerns the target T1, PRKCB1 (PKC beta I) (Homo sapiens, UniProt P05771).
T1 construct: purchased Thermo Fisher Scientific (Life Technologies) SelectScreen
Description: SelectScreen Z'LYTE. It counts as biochemical. The essentials:
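SelectScreen broad panel; activity (Z'LYTE, Adapta) plus binding formats. ATP: Km app for CSF1R Z'LYTE; 10 for CAMK1 Adapta. Readout = % per kinase.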

T1 sequence (P05771 whole entry): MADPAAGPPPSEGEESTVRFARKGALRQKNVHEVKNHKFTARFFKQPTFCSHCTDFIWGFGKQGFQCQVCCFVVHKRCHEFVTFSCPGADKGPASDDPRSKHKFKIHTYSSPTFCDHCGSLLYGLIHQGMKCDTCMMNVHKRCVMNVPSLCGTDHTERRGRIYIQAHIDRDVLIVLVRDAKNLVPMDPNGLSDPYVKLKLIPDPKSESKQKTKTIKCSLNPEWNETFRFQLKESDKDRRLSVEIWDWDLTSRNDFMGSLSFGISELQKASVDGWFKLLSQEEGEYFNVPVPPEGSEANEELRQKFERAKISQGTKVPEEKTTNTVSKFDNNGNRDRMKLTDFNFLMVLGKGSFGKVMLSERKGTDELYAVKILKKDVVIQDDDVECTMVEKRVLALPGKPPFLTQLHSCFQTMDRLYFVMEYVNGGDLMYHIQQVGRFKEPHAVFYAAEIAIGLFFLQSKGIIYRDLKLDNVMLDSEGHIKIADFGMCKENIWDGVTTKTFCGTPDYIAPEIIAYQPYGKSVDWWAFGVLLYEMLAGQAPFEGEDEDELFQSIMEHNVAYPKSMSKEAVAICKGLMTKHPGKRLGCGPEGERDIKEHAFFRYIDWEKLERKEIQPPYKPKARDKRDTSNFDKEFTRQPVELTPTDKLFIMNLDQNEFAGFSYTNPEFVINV

Consider `CN(C(=O)CN1CCOCC1)c1ccc2sc3c(-c4cccc5c(=O)cc(N6CC7CCC(C6)O7)oc45)cccc3c2c1` [NU5455], for which the inhibition – broadly, the drop in the measured response relative to a control, in per cent – at 1 µM was -0.7%.
